Measurements: patent publication US20030073218A1, “High affinity inhibitors for target validation and uses thereof” (Princeton University, priority 1999, published 2003)

Assays:
WT v-Src = biological target: T1, WT v-Src (Rous sarcoma virus subgroup A, UniProt P00524, DEL77-225); assay: biochemical; assay type: biochemical; parameters: in vitro inhibition of WT v-Src: dose or concentration left out as unconfirmed
T1 construct: mutant of the v-Src catalytic domain, (the XD4 fragment) were made as glutathione S-transferase (GST) fusion proteins; made in house; host or cells: E. coli (DH5a), pGEX-KT

WT Fyn = biological target: T2, WT Fyn (Homo sapiens, UniProt P06241); assay: In Vitro Kinase Inhibition Assay; assay type: biochemical; parameters: in vitro inhibition of Fyn: dose or concentration left out as unconfirmed; conditions: for IC50: Table 3, wild type
T2 construct: GST (N); made in house; host or cells: E. coli DH5a, pGEX-KT
T2 sequence (P06241 1-534 isoform P06241-2): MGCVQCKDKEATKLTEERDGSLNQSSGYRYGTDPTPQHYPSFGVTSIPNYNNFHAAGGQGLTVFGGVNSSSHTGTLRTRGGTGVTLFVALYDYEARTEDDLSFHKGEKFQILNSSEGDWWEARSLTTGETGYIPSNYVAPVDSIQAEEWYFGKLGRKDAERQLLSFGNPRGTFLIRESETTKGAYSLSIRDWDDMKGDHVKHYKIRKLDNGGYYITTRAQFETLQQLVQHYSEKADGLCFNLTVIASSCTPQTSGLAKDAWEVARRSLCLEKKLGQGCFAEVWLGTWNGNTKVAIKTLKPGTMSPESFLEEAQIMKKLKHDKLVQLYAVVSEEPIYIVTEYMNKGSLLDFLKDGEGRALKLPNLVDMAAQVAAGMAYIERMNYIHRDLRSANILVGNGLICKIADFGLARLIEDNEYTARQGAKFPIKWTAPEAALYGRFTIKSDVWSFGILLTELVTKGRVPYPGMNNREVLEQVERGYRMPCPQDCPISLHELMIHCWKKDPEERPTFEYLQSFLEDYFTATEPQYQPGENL

[1] = test system: B cell receptor (BCR) mediated phosphorylation cascade in murine B cells; assay: Murine B Cell Assay (phosphotyrosine blot after anti-IgM stimulation); assay type: cell-based; parameters: dose or concentration left out as unconfirmed; conditions: 30 minutes, anti-IgM cross linked murine B cells
Description: Murine B Cell Assay: Splenic lymphocytes were isolated from 6-20 week old Balb/c or C57/B6 mice. The cells were washed out of the spleen into RPMI media containing 1 mg/mL DNase in and the red blood cells were lysed in 17 mM tris-ammonium chloride, pH 7.2, Approximately 4×10^6 cells were incubated at 37° C. for 30 minutes with […] of 3 g or 2 in 1.1% DMSO. B cell stimulation was initiated by the addition of 2 mg of goat anti-mouse IgM (Jackson Immuno Research, cat# 115-005-075) and subsequent incubation for 5 minutes at 37(C. The cells were isolated by centrifugation (13,000 rpm, 2 min) and lysed (lysis buffer: 1% Triton X-100, 50 mM tris pH 7.4, 2 mM EDTA, 150 mM NaCl, […] PMSF, 2 mM sodium orthovanadate, 10 mg/mL leupeptin, 10 mg/mL apoprotin). The cellular debris was then pelleted at 13,000 rpm for 15 min. Cellular proteins were separated by 10% polyacrylamide gel electrophoresis and transferred to a nitrocellulose membrane by Western blotting. Phosphotyrosine containing proteins were visualized by immunoblotting with anti-phosphotyrosine antibody (Upstate Biotechnology, Inc.).

[2] = test system: protein tyrosine kinase in murine lymphocyte cell lysate (CF); assay: Screening of ATP analogs as kinase substrates in murine lymphocyte lysate (anti-phosphotyrosine immunoblot); assay type: biochemical; conditions: 100 uM nucleotide triphosphate, 37° C., 5 min
Description: Screening of Nucleotide Analogs: To identify compounds that would not be accepted as substrates by any existing cellular kinase (53), a panel of synthetic A*TP analogs were screened in a murine lymphocyte lysate (CF) rich in protein tyrosine kinase (13). The assays were performed using spleenocytes (8-30 week old male and female C57/B6 mice from the Princeton University Animal Facility) which were isolated and washed in RPMI-1640 medium containing 5% Bovine Calf Serum (BCS), 1% Hepes and DNAseI (1 μg/ml). Red cells were lysed at 4° C. by treatment with 17 mM tris ammonium chloride pH 7.2. The cells were hypotonically lysed on ice for 10 min. In 1 mM Hepes pH 7.4, 5 mM MgCl2, leupeptin (10 μg/ml), aprotinin (10 μg/ml) and 100 uM PMSF according to the method of Fukazawa et. al. (51). After vortexing and centrifuigation at 500 xg, the supernatant was collected. Cells were stored at 4° C. for 20 min. To attenuate the basal protein phosphorylation level, after which the buffer was adjusted to 20 mM Hepes pH 7.4, 10 mM MgCl2 and 1 mM NaF. Sodium vanadate (100 uM) was then added to inhibit the activity of phosphotyrosine phosphatases.
Each nucleotide triphosphate was added to a final concentration of 100 uM to 5×10^6 cell equivalents and incubated at 37° C. for 5 min. after which 4X Laemmli gel loading buffer was added to the cell lysate to quench the reaction. Proteins were separated by 12.5% SDS-PAGE and transferred to Protran BA85 (Schleicher-Schuell). The blot was probed with the anti-phosphotyrosine monoclonal antibody 4G10 (Upstate Biotechnology) and the bound antibody was detected via enhanced chemiluminescence (cat. 34080, Pierce) following treatment with HRP- coupled goat-anti-mouse antibody (VWR cat. 7101332) according to the manufacturer's instructions.
The cell lysate used includes the protein tyrosine kinase Src, Fyn, Lck, Lyn, Yes, Fgr, Hck, Zap, Syk, Btk, Blk, and other protein tyrosine kinase present in B and T lymphocytes, macrophages, and follicular dendritic cells (13). Molecular size standards (in kilodaltons) are indicated.

GST-XD4(V323A, I338A) = conditions: 100 μM analog, 10 μM [γ-32P] ATP
I338G v-Src = biological target: T3, I338G v-Src (Rous sarcoma virus subgroup A, UniProt P00524, DEL77-225/I338G); assay: biochemical; assay type: biochemical
T3 construct: screened against the catalytic domain of the target kinase, I338G v-Src; made in house; host or cells: E. coli DH5a, pGEX-KT

## OCC1OC(n2cnc3c(NOC4CCCC4)ncnc32)C(O)C1O (stereo not drawn) [1 (FIG. 14A), N-6 cyclopentyloxyadenosine]
WT v-Src
  in vitro inhibition of WT v-Src: no detectable in vitro inhibition
WT Fyn
  in vitro inhibition of Fyn: no detectable in vitro inhibition

## CC(C)(C)n1nc(-c2ccccc2)c2c(N)ncnc21 [2 (FIG. 14), 4-Amino-1-tert-butyl-3-phenylpyrazolo[3,4-d] pyrimidine, reference compound]
WT Fyn
  inhibition of WT Fyn (in words): highly potent (low nM)
[1]
  phosphotyrosine pattern of B cell stimulation: significant reduction in tyrosine phosphorylation

## CONc1ncnc2c1ncn2[C@@H]1O[C@H](COP(=O)(O)OP(=O)(O)OP(=O)(O)O)[C@@H](O)[C@H]1O [ATP analog 1, N^6(methoxy)ATP]
[2]
  ability to serve as cellular protein tyrosine kinase substrate (level of protein tyrosine phosphorylation): some ability to serve as cellular protein tyrosine kinase substrates

## CCONc1ncnc2c1ncn2[C@@H]1O[C@H](COP(=O)(O)OP(=O)(O)OP(=O)(O)O)[C@@H](O)[C@H]1O [ATP analog 2, N^6(ethoxy)ATP]
[2]
  ability to serve as cellular protein tyrosine kinase substrate (level of protein tyrosine phosphorylation): some ability to serve as cellular protein tyrosine kinase substrates

## CC(=O)Nc1ncnc2c1ncn2[C@@H]1O[C@H](COP(=O)(O)OP(=O)(O)OP(=O)(O)O)[C@@H](O)[C@H]1O [ATP analog 3, N^6(acetyl)ATP]
[2]
  ability to serve as cellular protein tyrosine kinase substrate (level of protein tyrosine phosphorylation): some ability to serve as cellular protein tyrosine kinase substrates

## CC(C)ONc1ncnc2c1ncn2[C@@H]1O[C@H](COP(=O)(O)OP(=O)(O)OP(=O)(O)O)[C@@H](O)[C@H]1O [ATP analog 4, N^6(i-propoxy)ATP]
[2]
  ability to serve as cellular protein tyrosine kinase substrate (level of protein tyrosine phosphorylation): little or no protein phosphorylation

## O=P(O)(O)OP(=O)(O)OP(=O)(O)OC[C@H]1O[C@@H](n2cnc3c(NCc4ccccc4)ncnc32)[C@H](O)[C@@H]1O [ATP analog 5, N^6-(benzyl)ATP]
GST-XD4(V323A, I338A)
  inhibition of GST-XD4(V323A, I338A) catalyzed RR-Src phosphorylation: almost as well as the wild-type kinase, GST-XD4, is inhibited by its natural substrate ATP
[2]
  ability to serve as cellular protein tyrosine kinase substrate (level of protein tyrosine phosphorylation): little or no protein phosphorylation

## O=P(O)(O)OP(=O)(O)OP(=O)(O)OC[C@H]1O[C@@H](n2cnc3c(NOCc4ccccc4)ncnc32)[C@H](O)[C@@H]1O [ATP analog 6, N^6-(benxyloxy)ATP]
[2]
  ability to serve as cellular protein tyrosine kinase substrate (level of protein tyrosine phosphorylation): little or no protein phosphorylation

## O=P(O)(O)OP(=O)(O)OP(=O)(O)OC[C@H]1O[C@@H](n2cnc3c(NOC4CCCC4)ncnc32)[C@H](O)[C@@H]1O [ATP analog 9, N^6(cyclopentyloxy)ATP]
GST-XD4(V323A, I338A)
  inhibition of GST-XD4(V323A, I338A) catalyzed RR-Src phosphorylation: almost as well as the wild-type kinase, GST-XD4, is inhibited by its natural substrate ATP

## O=P(O)(O)OP(=O)(O)OP(=O)(O)OC[C@H]1O[C@@H](n2cnc3c(NC4CCCCC4)ncnc32)[C@H](O)[C@@H]1O [ATP analog 11, N^6-(cyclohexyl)ATP]
GST-XD4(V323A, I338A)
  inhibition of GST-XD4(V323A, I338A) catalyzed RR-Src phosphorylation: almost as well as the wild-type kinase, GST-XD4, is inhibited by its natural substrate ATP

## CC(C)(C)n1nc(-c2ccccc2)c2c(NCC3CCCC3)ncnc21 [Compound 4b, 4-cyclopentylmethylamino-1-tert-butyl-3-phenylpyrazolo[3,4-d]pyrimidine]
I338G v-Src
  inhibition of I338G v-Src (in words): only poor to moderate inhibition
WT Fyn
  inhibition of WT Fyn (in words): sufficiently orthogonal to WT Fyn

## CC(C)(C)n1nc(-c2ccccc2)c2c(NCc3ccco3)ncnc21 [Compound 4d, 4-2′-furylmethylamino-1-tert-butyl-3-phenylpyrazolo[3,4-d]pyrimidine]
I338G v-Src
  inhibition of I338G v-Src (in words): only poor to moderate inhibition
WT Fyn
  inhibition of WT Fyn (in words): sufficiently orthogonal to WT Fyn

## CC(C)(C)n1nc(-c2ccccc2)c2c(NCc3ccccc3)ncnc21 [Compound 4e, 4-benzylamino-1-tert-butyl-3-phenylpyrazolo[3,4-d]pyrimidine]
I338G v-Src
  inhibition of I338G v-Src (in words): only poor to moderate inhibition
WT Fyn
  inhibition of WT Fyn (in words): sufficiently orthogonal to WT Fyn

## CC(C)(C)n1nc(-c2ccc3ccccc3c2)c2c(N)ncnc21 [Compound 6b, 4-amino-1-(tert-butyl)-3-(2′-naphthyl)pyrazolo[3,4-d]pyrimidine]
WT Fyn
  IC50: 130 nM

## CC(C)(C)n1nc(-c2cccc(Oc3ccccc3)c2)c2c(N)ncnc21 [Compound 6c, 4-amino-1-(tert-butyl)-3-(m-phenoxyphenyl)pyrazolo[3,4-d]pyrimidine]
WT v-Src
  IC50: 40000 nM
I338G v-Src
  IC50: 140 nM
WT Fyn
  IC50: 800 nM

## CC(C)(C)n1nc(-c2cccc(OCc3ccccc3)c2)c2c(N)ncnc21 [Compound 6d, 4-amino-1-(tert-butyl)-3-(m-benzyloxyphenyl)pyrazolo[3,4-d]pyrimidine]
WT v-Src
  IC50: 26000 nM
I338G v-Src
  IC50: 7 nM
  inhibition of I338G v-Src (in words): low nM concentrations
WT Fyn
  IC50: 6000 nM

## CC(C)(C)n1nc(-c2cccc(OCc3c(Cl)cccc3Cl)c2)c2c(N)ncnc21 [Compound 6e, 4-amino-1-(tert-butyl)-3-(m-(2′,6′-dichloro)benzyloxyphenyl) pyrazolo[3,4-d]pyrimidine]
I338G v-Src
  IC50: 130 nM
WT Fyn
  IC50: 84000 nM

## CC(C)(C)c1ccc(-c2nn(C(C)(C)C)c3ncnc(N)c23)cc1 [Compound 6g, 4-amino-1-(tert-butyl)-3-(p-tert-butylphenyl)pyrazolo[3,4 d]pyrimidine]
WT v-Src
  IC50: 65000 nM
I338G v-Src
  IC50: 99 nM
WT Fyn
  IC50: 9200 nM

## CC(C)(C)n1nc(Cc2ccc3ccccc3c2)c2c(N)ncnc21 [Compound 6j, 4-amino-1-(tert-butyl)-3-(2′-naphthylmethyl)pyrazolo[3,4-d]pyrimidine]
WT v-Src
  IC50: > 300000 nM
I338G v-Src
  IC50: 20 nM
  inhibition of I338G v-Src (in words): medium potency

## Cc1ccc(-c2nn(C(C)(C)C)c3ncnc(N)c23)cc1 [PP1, 4-amino-1-tert-butyl-3-(p-methylphenyl)pyrazolo[3,4-d]pyrimidine, reference compound]
WT Fyn
  inhibition of WT Fyn (in words): highly potent (low nM)
